{"source": "patent US20030220374A1", "about": "“Compositions and methods of treatment involving peroxisome proliferator-activated receptor-gamma agonists and cyclooxygenase-2 selective inhibitors” (Pharmacia Corporation, priority 2002, published 2003)", "origin": "cited, not measured here", "key": {"[1]": {"tested_on": "vascular smooth muscle cell"}, "human carotid arteries": {"tested_on": "human carotid arteries", "conditions": "in vivo"}, "[2]": {"tested_on": "hepatocellular cancer cells"}, "human lung cancer cells": {"tested_on": "human lung cancer cells", "conditions": "through the induction of apoptosis"}, "[3]": {"tested_on": "fibroblast growth factor-induced corneal angiogenesis", "conditions": "rats"}, "PPARγ": {"molecular_target": "T1, PPARγ (Homo sapiens, UniProt P37231)", "T1 sequence (P37231 1-505)": "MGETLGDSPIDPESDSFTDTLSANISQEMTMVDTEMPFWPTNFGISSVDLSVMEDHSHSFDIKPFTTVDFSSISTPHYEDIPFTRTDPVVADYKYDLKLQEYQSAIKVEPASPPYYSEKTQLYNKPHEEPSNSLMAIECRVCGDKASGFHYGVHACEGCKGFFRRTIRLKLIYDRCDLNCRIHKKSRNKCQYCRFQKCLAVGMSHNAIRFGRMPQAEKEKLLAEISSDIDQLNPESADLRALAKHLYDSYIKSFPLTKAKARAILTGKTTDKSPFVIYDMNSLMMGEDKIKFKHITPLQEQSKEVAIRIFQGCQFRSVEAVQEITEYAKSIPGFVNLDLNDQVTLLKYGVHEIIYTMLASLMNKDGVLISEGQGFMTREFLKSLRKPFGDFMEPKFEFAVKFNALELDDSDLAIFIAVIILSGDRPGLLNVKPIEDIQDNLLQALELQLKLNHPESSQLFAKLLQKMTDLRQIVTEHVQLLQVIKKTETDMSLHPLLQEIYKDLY"}}, "data": [{"smiles": "Cc1c(C)c2c(c(C)c1O)CCC(C)(COc1ccc(CC3SC(=O)NC3=O)cc1)O2", "note": "(single isomer, unassigned; (+)) [Troglitazone, (+)-5-[[4-[(3,4-dihydro-6-hydroxy-2,5,7,8-tetramethyl-2H-1-benzopyran-2-yl)methoxy]phenyl]methyl]-2,4-thiazolidinedione]", "values": [{"measurement": "vascular smooth muscle cell growth", "setting": "[1]", "value": "inhibits"}, {"measurement": "hyperplasia of human carotid arteries", "setting": "human carotid arteries", "value": "decreases"}, {"measurement": "growth inhibition of hepatocellular cancer cells", "setting": "[2]", "value": "marked growth inhibition"}, {"measurement": "growth of human lung cancer cells", "setting": "human lung cancer cells", "value": "inhibited the growth"}]}, {"smiles": "Cc1ccc(-c2cc(C(F)(F)F)nn2-c2ccc(S(N)(=O)=O)cc2)cc1", "note": "[Celecoxib, 4-[5-(4-methylphenyl)-3-(trifluoromethyl)-1H-pyrazol-1-yl]benzenesulfonamide]", "values": [{"measurement": "inhibition of fibroblast growth factor-induced corneal angiogenesis", "setting": "[3]", "value": "potent inhibition"}]}, {"smiles": "CCCCC/C=C\\C=C1\\C(=O)C=C[C@@H]1C/C=C\\CCCC(=O)O", "note": "[15-deoxy-Δ^12,14-prostaglandin J2, 11-oxo-prosta-5Z,9,12E,14Z-tetren-1-oic acid]", "values": [{"measurement": "growth inhibition of hepatocellular cancer cells", "setting": "[2]", "value": "marked growth inhibition"}]}, {"smiles": "COc1ccc2nc(COc3ccc(CC4SC(=O)NC4=O)cc3)n(C)c2c1", "note": "(stereo not shown) [CS-011, CI-1037]", "values": [{"measurement": "EC50", "setting": "PPARγ", "value": 160, "unit": "nM"}]}]}
